The record followed here is ChEMBL document CHEMBL5385901, “Drug repurposing of propafenone to discover novel anti-tumor agents by impairing homologous recombination to delay DNA damage recovery of rare disease conjunctival melanoma” (Eur J Med Chem, 2023).

Active and inactive are the calls of the source. The rule behind the calls is not given here.

Data set [1] in a line: Toxicity in immunodeficient NCG mouse xenografted with human CRMM-1 cells assessed as pathomorphological change in liver at 10 mg/kg, po for 28 days administered five times per week by H and E staining based analysis. In kind it is organism-based. Conditions: in vivo, 672 h, time 28 day. (Xenograft models place foreign cells or tissue in a host animal.)
For data set [2], the system named is CRMM-1. The experiment in a line: Antitumor activity against human CRMM-1 cells xenografted in immunodeficient NCG mouse assessed as mean tumor volume at 10 mg/kg, po for 28 days administered five times per week (reference value: 540 mm3). To be noted: time 28 day. In kind it is functional.
Data set [3] is described as follows: Toxicity in immunodeficient NCG mouse xenografted with human CRMM-1 cells assessed as pathomorphological change in kidney at 10 mg/kg, po for 28 days administered five times per week by H and E staining based analysis. In kind it is organism-based. To be noted: in vivo, 672 h, time 28 day.
In data set [4] the test system is CRMM-1. The data set can be described thus: Antitumor activity against human CRMM-1 cells xenografted in immunodeficient NCG mouse assessed as tumor growth suppression at 10 mg/kg, po for 28 days administered five times per week relative to control. In kind it is functional. To be noted: time 28 day.
Data set [5] is described as follows: Toxicity in immunodeficient NCG mouse xenografted with human CRMM-1 cells assessed as pathomorphological change in liver at 10 to 20 mg/kg, ip for 28 days administered five times per week by H and E staining based analysis. In kind it is organism-based. To be noted: in vivo, 672 h, dose 10-20 mg/kg, time 28 day.
A short description of data set [6]: Toxicity in immunodeficient NCG mouse xenografted with human CRMM-1 cells assessed as change in serum urea level at 10 to 20 mg/kg, ip for 28 days administered five times per week. In kind it is organism-based. Conditions: in vivo, 672 h, dose 10-20 mg/kg, time 28 day.
Data set [7] deals with CRMM-1. The data set can be described thus: Antitumor activity against human CRMM-1 cells xenografted in immunodeficient NCG mouse assessed as mean tumor volume at 20 mg/kg, ip for 28 days administered five times per week (reference value: 540 mm3). In kind it is functional. To be noted: time 28 day.
Data set [8] can be described thus: Toxicity in immunodeficient NCG mouse xenografted with human CRMM-1 cells assessed as pathomorphological change in kidney at 10 to 20 mg/kg, ip for 28 days administered five times per week by H and E staining based analysis. In kind it is organism-based. Conditions: in vivo, 672 h, dose 10-20 mg/kg, time 28 day.
Data set [9] has as its system CRMM-1. The data set can be described thus: Antitumor activity against human CRMM-1 cells xenografted in immunodeficient NCG mouse assessed as tumor growth suppression at 20 mg/kg, ip for 28 days administered five times per week relative to control. To be noted: time 28 day. In kind it is functional.
The test system of data set [10] is CRMM-1. The data set can be described thus: Antitumor activity against human CRMM-1 cells xenografted in immunodeficient NCG mouse assessed as mean tumor volume at 10 mg/kg, ip for 28 days administered five times per week (reference value: 540 mm3). In kind it is functional. To be noted: time 28 day.
Data set [11] relates to CRMM-1. The data set can be described thus: Antitumor activity against human CRMM-1 cells xenografted in immunodeficient NCG mouse assessed as tumor growth suppression at 10 mg/kg, ip for 28 days administered five times per week relative to control. In kind it is functional. Conditions: time 28 day.
The nature of data set [12]: Toxicity in immunodeficient NCG mouse xenografted with human CRMM-1 cells assessed as change in serum ALT level at 10 to 20 mg/kg, ip for 28 days administered five times per week. In kind it is organism-based. To be noted: in vivo, 672 h, dose 10-20 mg/kg, time 28 day.
The nature of data set [13]: Toxicity in immunodeficient NCG mouse xenografted with human CRMM-1 cells assessed as body weight loss at 10 to 20 mg/kg, ip for 28 days administered five times per week. In kind it is organism-based. To be noted: in vivo, 672 h, dose 10-20 mg/kg, time 28 day.
Data set [14] can be described thus: Toxicity in immunodeficient NCG mouse xenografted with human CRMM-1 cells assessed as change in serum CREA level at 10 to 20 mg/kg, ip for 28 days administered five times per week. In kind it is organism-based. Conditions: in vivo, 672 h, dose 10-20 mg/kg, time 28 day.
A short description of data set [15]: Toxicity in immunodeficient NCG mouse xenografted with human CRMM-1 cells assessed as change in serum AST level at 10 to 20 mg/kg, ip for 28 days administered five times per week. In kind it is organism-based. Conditions: in vivo, 672 h, dose 10-20 mg/kg, time 28 day.
Data set [16] relates to CRMM-2. The data set can be described thus: Induction of DNA damage in human CRMM-2 cells assessed as increase in p53 level upto 10 uM by immunoblot analysis. In kind it is functional, cell-based. (In western blotting, separated proteins are transferred to a membrane and probed.)
Data set [17] concerns CRMM-2. The experiment in a line: Induction of DNA damage in human CRMM-2 cells assessed as decrease in […] level upto 10 uM measured after 48 hrs by immunoblot analysis. In kind it is functional, cell-based.
In data set [18] the test system is CRMM-2. The experiment in a line: Induction of DNA damage in human CRMM-2 cells assessed as decrease in NBS1 level measured after 48 hrs by immunoblot analysis. In kind it is functional, cell-based. Conditions: dose <= 10.0 µM.
The test system of data set [19] is CRMM-1. The experiment in a line: Induction of DNA damage in human CRMM-1 cells assessed as increase in p53 level upto 10 uM by immunoblot analysis. In kind it is functional, cell-based.
For data set [20], the system named is CRMM-1. The experiment in a line: Induction of DNA damage in human CRMM-1 cells assessed as decrease in RAD50 level measured after 48 hrs by immunoblot analysis. In kind it is functional, cell-based. To be noted: dose <= 10.0 µM.
The test system of data set [21] is CRMM-2. The data set can be described thus: Induction of DNA damage in human CRMM-2 cells assessed as decrease in MRE11 level measured after 48 hrs by immunoblot analysis. In kind it is functional, cell-based. To be noted: dose <= 10.0 µM.
Data set [22] concerns CRMM-2. The experiment in a line: Induction of DNA double strand breaks in human CRMM-2 cells assessed as gamma-H2AX accumulation at 1 uM measured after 24 hrs immunofluorescence based confocal microscopy. In kind it is functional, cell-based.
The test system of data set [23] is CRMM-1. The experiment in a line: Induction of DNA damage in human CRMM-1 cells assessed as decrease in […] level upto 10 uM measured after 48 hrs by immunoblot analysis. In kind it is functional, cell-based.
In data set [24] the test system is CRMM-1. The experiment in a line: Induction of DNA double strand breaks in human CRMM-1 cells assessed as gamma-H2AX accumulation upto 10 uM by immunoblot analysis. In kind it is functional, cell-based.
Data set [25] has as its system CRMM-1. The data set can be described thus: Induction of apoptosis in human CRMM-1 cells at 0.1 uM measured after 48 hrs by DAPI/Annexin-V-PE staining based flow cytometry. In kind it is functional, cell-based. (In general: A flow cytometer gives signals particle by particle.)
Data set [26] deals with CRMM-1. The experiment in a line: Induction of apoptosis in human CRMM-1 cells at 0.3 to 3 uM measured after 48 hrs by DAPI/Annexin-V-PE staining based flow cytometry. In kind it is functional, cell-based. To be noted: dose 0.3-3 µM.
Data set [27] has as its system CRMM-1. The experiment in a line: Induction of DNA damage in human CRMM-1 cells assessed as decrease in RAD51 level upto 10 uM measured after 48 hrs by immunoblot analysis. In kind it is functional, cell-based.
Data set [28] concerns CRMM-2. The data set can be described thus: Induction of DNA damage in human CRMM-2 cells assessed as decrease in RAD51 level upto 10 uM measured after 48 hrs by immunoblot analysis. In kind it is functional, cell-based.
The subject of data set [29] is CRMM-1. The data set can be described thus: Induction of DNA damage in human CRMM-1 cells assessed as decrease in MRE11 level measured after 48 hrs by immunoblot analysis. In kind it is functional, cell-based. Conditions: dose <= 10.0 µM.
For data set [30], the target named is T1, Double-strand break repair protein MRE11 (Homo sapiens) (UniProt P49959).
T1 sequence (whole entry): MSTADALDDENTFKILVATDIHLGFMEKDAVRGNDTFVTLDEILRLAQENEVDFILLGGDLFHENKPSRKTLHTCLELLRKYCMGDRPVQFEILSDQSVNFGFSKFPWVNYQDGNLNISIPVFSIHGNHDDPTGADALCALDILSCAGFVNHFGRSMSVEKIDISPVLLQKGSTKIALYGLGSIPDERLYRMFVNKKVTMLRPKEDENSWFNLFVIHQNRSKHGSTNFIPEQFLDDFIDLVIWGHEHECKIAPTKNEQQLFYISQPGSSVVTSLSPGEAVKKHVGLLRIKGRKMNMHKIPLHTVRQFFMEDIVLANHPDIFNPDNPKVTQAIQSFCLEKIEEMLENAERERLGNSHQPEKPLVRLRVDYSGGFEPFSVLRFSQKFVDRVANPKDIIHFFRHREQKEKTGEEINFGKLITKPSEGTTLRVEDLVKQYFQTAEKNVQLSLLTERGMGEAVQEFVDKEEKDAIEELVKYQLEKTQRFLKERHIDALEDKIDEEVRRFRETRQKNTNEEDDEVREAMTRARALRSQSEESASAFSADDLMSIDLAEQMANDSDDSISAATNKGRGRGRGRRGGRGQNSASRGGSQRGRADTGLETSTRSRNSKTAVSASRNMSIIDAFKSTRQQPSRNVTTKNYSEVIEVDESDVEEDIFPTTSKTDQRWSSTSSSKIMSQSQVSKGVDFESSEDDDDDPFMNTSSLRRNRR
The experiment in a line: Inhibition of his-tagged human MRE11 endonuclease activity using phage X174 circular ssDNA as substrate at 10 to 300 uM incubated for 30 mins by chemiluminescence based analysis. Conditions: dose 10-300 µM.

For data set [31], the system named is CRMM-2. The data set can be described thus: Induction of DNA damage in human CRMM-2 cells assessed as decrease in RAD50 level measured after 48 hrs by immunoblot analysis. In kind it is functional, cell-based. Conditions: dose <= 10.0 µM.
For data set [32], the system named is CRMM-1. The experiment in a line: Induction of DNA double strand breaks in human CRMM-1 cells assessed as gamma-H2AX accumulation at 1 uM measured after 24 hrs immunofluorescence based confocal microscopy. In kind it is functional, cell-based.
The test system of data set [33] is CRMM-1. The experiment in a line: Induction of DNA damage in human CRMM-1 cells assessed as decrease in NBS1 level measured after 48 hrs by immunoblot analysis. In kind it is functional, cell-based. Conditions: dose <= 10.0 µM.
The test system of data set [34] is CRMM-2. The experiment in a line: Induction of DNA double strand breaks in human CRMM-2 cells assessed as gamma-H2AX accumulation upto 10 uM by immunoblot analysis. In kind it is functional, cell-based.

Take `Cn1cnc2c(F)c(Nc3ccc(Br)cc3F)c(C(=O)NOCCO)cc21` [BINIMETINIB]: the Activity result was “Non-Toxic” in data set [1], 270 mm3 in data set [2], “Non-Toxic” in data set [3] and 41% in [4].

Take `Cl.Cl.O=C(CCCc1ccccc1)c1c(OCCCN2CCNCC2)ccc2ccccc12`: the Activity entry in [5] is “Non-Toxic”; in data set [6] it was “Non-Toxic”; in data set [7], 340 mm3; in data set [8], “Non-Toxic”; in data set [9], 33%; in data set [10], 390 mm3. Besides, the Activity is 21% in [11]; “Non-Toxic” in data set [12]; “Non-Toxic” in [13]; “Non-Toxic” in data set [14]; “Non-Toxic” in data set [15].

As to `O=C(CCCc1ccccc1)c1c(OCCCN2CCNCC2)ccc2ccccc12`, the result in [16], in data set [17], in [19], in data set [22], in data set [23] and in data set [24] was Active. The result in data set [26], in data set [27], in data set [28], in [32] and in data set [34] was Active. The Activity result in data set [18], in data set [20], in data set [21], in [29], in data set [31] and in [33] was “Dose-Dependent Effect” in each case. Besides, the outcome in data set [25] was inactive. Further, in data set [30], the inhibition result was “Active”.
